Measured values published in patent publication US9463192B2, “Trk-inhibiting compound” (ONO PHARMACEUTICAL CO., LTD., priority 2013, dated 2016).

Legend:
[1] = tested on: NGF-induced vascular hyper permeability; assay: Inhibition of rat NGF-induced vascular hyper permeability; assay type: in vivo; details: po, 1 mg/kg orally, 14 h after administration, read-out: Inhibition rate of vascular hyper permeability (%) (time after administration (h))
Procedure: TrkA-inhibiting activity of the present compound was evaluted in vivo. The present compound dissolved in a medium was orally administered (adminstered volume: 5 mL/kg) to male CD(SD)IGS rats (7- to 9-week old, Charles River laboratories Japan, Inc.) shaved on the back. A medium was orally administered (adminstered volume: 5 mL/kg) to the control and normal groups. After 6, 12 or 14 hours of administration, 3 μg/mL of a NGF (Mouse 2.5s, Natural, Invitrogen) solution prepared in 0.1% BSA (Sigma-Aldrich)-containing saline was intracutaneously administered (dose; 50 μL/site) at 3 sites on the back of animals under halothane anesthesia. For the normal group, 0.1% BSA-containing saline was intracutaneously administered (dose; […]) at 3 sites on the back. Immediately after intracutaneous administration, 1% Evans Blue (Tokyo Chemical Industriy Co., Ltd.) was administered intravenously from tail (adminstered volume: 3 mL/kg). After 10 minutes of administration, the animals were sacrificed by bleeding due to incision of the abdominal aorta. The sites of intracutaneous administration on the back (3 sites) were excised and the skin samples were respectively transferred to the wells in a 48-well plate (Asahi Glass Co., Ltd.). Formamide (0.8 mL/well) was added to the plate and the plate was sealed and incubated overnight at 60° C. The formamide extraction solution (200 μL) was transferred to a 96-well plate and the absorbance (wavelength: 620 nm) of Evans Blue extracted in formamide was measured on an absorbance microplate reader (SpectraMAX 190, Molecular Devices Japan, K.K.). Standard samples of Evans Blue dissolved in formamide (0, 0.78, 1.56, 3.13, 6.25, 12.5, 25 and 50 µg/mL) were measured at the same time for the absorance (wavelength: 620 nm) to generate a calibration curve. Based on the calibration curve and the absorbances of samples, the concentrations of Evans Blue in the sample was calculated. The concentrations of Evans Blue for three skin samples collected from one aminal were averaged to obtain the vale for the animal. The rate of inhibition for rat NGF-induced vascular hyper permeability of the present compound was calculated according to the following Equation: Inhibition rate (%)={1−(AX−AN)/(AC−AN)}×100 [Eq. 3]
wherein AX: the concentration of Evans Blue of the test compound (an average value of 3 samples from one animal);
AN: the concentration of Evans Blue of the normal group (an average value of 3 samples from one animal);
AC: the concentration of Evans Blue of the control group (an average value of 3 samples from one animal).

human TrkA = human TrkA (Homo sapiens (Human), UniProt P04629); assay: Measurement of TrkA kinase-inhibiting activity using human TrkA-expressing cells; assay type: cell-based; details: CHO-K1 cells expressing human TrkA and NFAT-bla; NGF 50 ng/ml; TR-FRET reporter
Procedure: TrkA kinase-inhibiting activity in cell systems was measured using CHO-K1 cells exressing human TrkA and NFAT-bla (CellSenser™ TrkA-NFAT-bla CHO-K1 cells, Invitrogen).
On the day before the assay, CellSenser™ TrkA-NFAT-bla CHO-K1 cells were suspended in an assay medium (Opti-MEM1 Reduced Serum Medium (Invitrogen) containing 0.5% dialysed fetal bovine serum (Invitrogen), 0.1 mM nonessential amino acids (Invitrogen), 1 mM sodium pyruvate (Invitrogen) and antibiotics (100 U/mL penicillin and 100 µg/mL streptomycin (Invitrogen))) and plated at a density of 2.4×10^4 cells/40 μL/well in a 96-well clear bottom plate (Corning, Catalogue No.: 3882). In some wells were added only the assay medium at 40 μL/well (Cell-free). On the day of the assay, 10 mM of the present compound (DMSO solution) was distributed in a 96-well plate (Costar, Catalogue No.: 3363) and serially diluted with DMSO with the geometrical ratio of 3. The serial dilutions were diluted with the assay medium to 100-fold to prepare a solution of the present compound with a 10-fold concentration (DMSO concentration: 1%). To the plate where cells were plated was added the present compound at 5 µL/well and the plate was incubated in a CO2 incubator with 5% CO2, 95% Air at 37° C. for 30 minutes. For a control and a blank, the assay medium containing 1% DMSO was added at 5 µL/well in place of the solution of the present compound. Subsequently the assay medium containing NGF (Mouse 2.5s, Natural, Invitrogen) was added to the plate at 5 µL/well (final concentration of NGF: 50 ng/ml) and the plate was incubated in a CO2 incubator with 5% CO2, 95% Air at 37° C. for 5 hours. For the blank group, the assay medium was added in place of NGF at 5 µL/well. A reporter assay detection reagent ([…]) was added to the plate which was then incubated in the dark at room temperature for 120 minutes. The reporter assay detection reagent was prepared from LiveBLAzer™-FRET B/G Loading Kit (Invitrogen). On the Analyst GT (Molecular Devices Japan, K.K.) the wells were irradiated with excitation light at 405 nm and the fluorescence intensities at 460 nm and 530 nm were measured. The time resolved fluorescence resonance energy transfer (TR-FRET) ratio of each well was calculated according to the following Equation 1: TR-FRET ratio=(A460x−A460F)/(A530x−A530F) [Eq. 1]
A460x: the fluorescence intensity at 460 nm of the present compound, control or blank;
A460F: the fluorescence intensity at 460 nm of the Cell-free;
A530x: the fluorescence intensity at 530 nm of the present compound, control or blank; and
A530x: the fluorescence intensity at 530 nm of the Cell-free.
The TR-FRET inhibition rate (%) of the present compound was calculated according to the following Equation 2: Inhibition rate (%)={1−(AX−AB)/(AC−AB)}×100 [Eq. 2]
wherein AX: the TR-FRET ratio when the present compound is added;
AB: the TR-FRET of the blank; and
AC: the TR-FRET of the control.
The IC50 value by the present compound was calculated from the inhibition curve based on the inhibition rate of the present compound at respective concentrations.

[2] = tested on: sodium monoiodoacetate-induced model rats; assay: Analgesic effect on sodium monoiodoacetate-induced model rats; assay type: in vivo, rat

Chain of human TrkA (P04629 33-796): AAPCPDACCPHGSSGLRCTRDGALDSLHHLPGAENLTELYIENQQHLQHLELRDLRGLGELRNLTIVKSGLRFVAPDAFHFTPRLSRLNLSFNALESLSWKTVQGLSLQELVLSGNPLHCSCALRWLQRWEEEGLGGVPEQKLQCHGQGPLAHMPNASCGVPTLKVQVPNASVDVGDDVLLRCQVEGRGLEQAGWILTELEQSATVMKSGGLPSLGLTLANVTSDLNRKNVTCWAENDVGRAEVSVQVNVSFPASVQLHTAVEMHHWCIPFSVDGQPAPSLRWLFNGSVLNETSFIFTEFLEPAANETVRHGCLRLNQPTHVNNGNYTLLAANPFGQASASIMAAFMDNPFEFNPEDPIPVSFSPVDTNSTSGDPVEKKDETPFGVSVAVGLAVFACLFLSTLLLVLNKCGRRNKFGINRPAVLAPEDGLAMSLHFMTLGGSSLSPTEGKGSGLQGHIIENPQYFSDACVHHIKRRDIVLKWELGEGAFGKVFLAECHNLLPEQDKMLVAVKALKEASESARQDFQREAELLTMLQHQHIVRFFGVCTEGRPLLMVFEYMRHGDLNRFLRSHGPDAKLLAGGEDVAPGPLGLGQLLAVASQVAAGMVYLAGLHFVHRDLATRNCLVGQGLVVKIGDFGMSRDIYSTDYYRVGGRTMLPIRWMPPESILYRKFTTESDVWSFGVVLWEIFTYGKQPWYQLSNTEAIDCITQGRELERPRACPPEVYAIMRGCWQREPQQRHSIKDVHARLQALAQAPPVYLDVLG

Row | Compound | inhibition in vivo at 1 mg/kg [1] [%] | IC50 (human TrkA) [µM] | inhibition in vivo at 3 mg/kg ([2]; Rattus norvegicus, sc, 1 h, read-out: Percent improvement (%)) [%] | Percent improvement (%) ([2]; MIA-induced model rats, day 24, tramadol 10 mg/kg subcutaneously 1 hour before measurement)
1 | CN(C)c1ccn2ncc(-c3ccc(Oc4ncc(NC(=O)Nc5cc(C(F)(F)F)ccc5-c5ccnn5C)cn4)cc3)c2n1 [Example 21-51, 1-(2-{4-[5-(dimethylamino)pyrazolo[1,5-a]pyrimidin-3-yl]phenoxy}-5-pyrimidinyl)-3-[2-(1-methyl-1H-pyrazol-5-yl)-5-(trifluoromethyl)phenyl]urea] | 95 | 0.001 | – | –
2 | Cc1ccn2ncc(-c3ccc(Oc4ncc(NC(=O)Nc5cc(C(F)(F)F)ccc5-c5cccnc5)cn4)cc3)c2n1 [Example 21-65, 1-{2-[4-(5-methylpyrazolo[1,5-a]pyrimidin-3-yl)phenoxy]-5-pyrimidinyl}-3-[2-(3-pyridinyl)-5-(trifluoromethyl)phenyl]urea] | 92 | 0.0007 | – | –
3 | CCNc1ccn2ncc(-c3ccc(Oc4ncc(NC(=O)Nc5cc(C(F)(F)F)ccc5-c5cccc(C)c5)cn4)cc3)c2n1 [Example 21-67, 1-(2-{4-[5-(ethylamino)pyrazolo[1,5-a]pyrimidin-3-yl]phenoxy}-5-pyrimidinyl)-3-[3′-methyl-4-(trifluoromethyl)-2-biphenylyl]urea] | 90 | 0.004 | – | –
4 | CN(C)c1ccn2ncc(-c3ccc(Oc4ncc(NC(=O)Nc5cc(C(F)(F)F)ccc5-c5ccccc5)cn4)cc3)c2n1 [Example 21-70, 1-(2-{4-[5-(dimethylamino)pyrazolo[1,5-a]pyrimidin-3-yl]phenoxy}-5-pyrimidinyl)-3-[4-(trifluoromethyl)-2-biphenylyl]urea] | 100 | 0.002 | – | –
5 | Cc1cccc(-c2ccc(C(F)(F)F)cc2NC(=O)Nc2cnc(Oc3ccc(-c4cnn5ccc(N(C)C)nc45)cc3)nc2)c1 [Example 21-73, 1-(2-{4-[5-(dimethylamino)pyrazolo[1,5-a]pyrimidin-3-yl]phenoxy}-5-pyrimidinyl)-3-[3′-methyl-4-(trifluoromethyl)-2-biphenylyl]urea] | 92 | 0.003 | – | –
6 | Cc1ccccc1-c1ccc(C(F)(F)F)cc1NC(=O)Nc1cnc(Oc2ccc(-c3cnn4ccc(N(C)C)nc34)cc2)nc1 [Example 21-75, 1-(2-{4-[5-(dimethylamino)pyrazolo[1,5-a]pyrimidin-3-yl]phenoxy}-5-pyrimidinyl)-3-[2′-methyl-4-(trifluoromethyl)-2-biphenylyl]urea] | 100 | 0.004 | – | –
7 | COc1ccc2ncc(-c3ccc(Oc4ncc(NC(=O)Nc5cc(C(F)(F)F)ccc5-c5cccnc5)cn4)cc3)n2n1 [Example 22-8, 1-(2-(4-(6-methoxyimidazo[1,2-b]pyridazin-3-yl)phenoxy)pyrimidin-5-yl)-3-(2-(pyridin-3-yl)-5-(trifluoromethyl)phenyl)urea] | 100 | 0.001 | – | –
8 | COc1ccc2ncc(-c3ccc(Oc4ncc(NC(=O)Nc5cc(C(F)(F)F)ccc5-n5cccn5)cn4)cc3)n2n1 [Example 22-9, 1-(2-(1H-pyrazol-1-yl)-5-(trifluoromethyl)phenyl)-3-(2-(4-(6-methoxyimidazo[1,2-b]pyridazin-3-yl)phenoxy)pyrimidin-5-yl)urea] | 100 | 0.001 | – | –
9 | CCOc1ccc2ncc(-c3ccc(Oc4ncc(NC(=O)Nc5cc(C(F)(F)F)ccc5-c5cccnc5)cn4)cc3)n2n1 [Example 22-34, 1-{2-[4-(6-ethoxyimidazo[1,2-b]pyridazin-3-yl)phenoxy]-5-pyrimidinyl}-3-[2-(3-pyridinyl)-5-(trifluoromethyl)phenyl]urea] | 91 | 0.001 | – | –
10 | CN1CC[C@]23c4c5ccc(O)c4O[C@H]2[C@@H](O)C=C[C@H]3[C@H]1C5 [Morphine] | – | – | 54 | –
11 | COc1cccc(C2(O)CCCCC2CN(C)C)c1 (centres unmarked) [Tramadol] | – | – | – | 43
